Data published in PMC12728570, “Sphingomyelin synthase inhibitors from edible mushrooms prevent overweight and improve vitamin D homeostasis in a mouse model of diet-induced obesity” (Frontiers in Nutrition, 2025).
Read-outs that look alike come from different tables or passages of the source.

Experiments:
[1] = tested on: T1, SMS1 (sphingomyelin synthase 1); experiment: HPLC-fluorescence enzyme assay, ZS2 cell lysate; assay type: biochemical; conditions: 37 °C, 30 min preincubation
T1 construct: gene SGMS1; stably expressed in SMS1/SMS2-deficient mouse embryonic fibroblasts (ZS2), cell lysate
From the text: HPLC-fluorescence enzyme assay, ZS2 cell lysate on SMS1 (sphingomyelin synthase 1)

[2] = tested on: T2, SMS2 (sphingomyelin synthase 2); experiment: HPLC-fluorescence enzyme assay, ZS2 cell lysate; assay type: biochemical; conditions: Path 2: 5 μM C6-NBD-ceramide to NBD-SM; 5 μM C6-NBD-PC present; 37 °C, 30 min preincubation
T2 construct: gene SGMS2; stably expressed in SMS1/SMS2-deficient mouse embryonic fibroblasts (ZS2), cell lysate
From the text: HPLC-fluorescence enzyme assay, ZS2 cell lysate on SMS2 (sphingomyelin synthase 2)

Row | SMILES | IC50 ([1]; Path 2: 5 μM C6-NBD-ceramide to NBD-SM, 5 μM C6-NBD-PC present) [µM] | IC50 [2] [µM] | IC50 ([1]; read-out: IC50 (μM) / SMS1 / Path 1) [µM]
1 | CC(C)=CCC/C(C)=C/CC/C(C)=C/Cc1c(O)cc(C)cc1O [grifolin] | 0.6 | 3 | 
2 | CC(C)=CCC/C(C)=C/CC/C(C)=C/Cc1c(O)cc(C)c(C(=O)O)c1O [grifolic acid] |  | 2.5 | 3
